Experimental data taken from patent US20230102554A1 (GB002, INC., priority 2019, published 2023).

How the values were obtained:
[1] = molecular target: T1, Human PDGFRβ, cytoplasmic domain (GST-PDGFRβ) (Homo sapiens, UniProt P09619); test: Human PDGFRβ biochemical inhibition assay (off-chip Mobility Shift Assay)
T1 construct: made in house
In short: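 GST-tagged cytoplasmic domain (aa 557-1106) from baculovirus was incubated 1 h at room temperature with compound, CSKtide, ATP at Km and Mg²⁺ in HEPES buffer, pH 7.5. Phosphorylated and unphosphorylated peptide were separated by off-chip mobility shift, and the product ratio P/(P+S) gave percent inhibition.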

[2] = molecular target: T2, Human PDGFRα, cytoplasmic domain (GST-PDGFRα) (Homo sapiens, UniProt P16234); test: Human PDGFRα biochemical inhibition assay (off-chip Mobility Shift Assay)
T2 construct: made in house
T2 sequence (P16234 550-1089 T674I): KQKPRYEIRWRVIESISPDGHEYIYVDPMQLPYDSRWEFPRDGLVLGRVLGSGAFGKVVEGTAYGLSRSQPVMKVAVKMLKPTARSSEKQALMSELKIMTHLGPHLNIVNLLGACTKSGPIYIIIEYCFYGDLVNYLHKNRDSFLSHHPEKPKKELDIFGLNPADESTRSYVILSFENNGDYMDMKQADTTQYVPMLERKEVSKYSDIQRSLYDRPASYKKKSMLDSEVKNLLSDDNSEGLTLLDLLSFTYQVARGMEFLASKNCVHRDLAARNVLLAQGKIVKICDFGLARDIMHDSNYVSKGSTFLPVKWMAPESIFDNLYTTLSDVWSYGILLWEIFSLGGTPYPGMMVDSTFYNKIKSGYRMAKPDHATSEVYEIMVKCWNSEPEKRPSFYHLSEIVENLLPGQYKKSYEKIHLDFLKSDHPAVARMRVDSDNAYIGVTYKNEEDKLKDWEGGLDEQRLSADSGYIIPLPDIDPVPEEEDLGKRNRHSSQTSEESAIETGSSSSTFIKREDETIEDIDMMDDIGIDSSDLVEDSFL

T1 sequence (P09619 with tags, fused parts or gaps): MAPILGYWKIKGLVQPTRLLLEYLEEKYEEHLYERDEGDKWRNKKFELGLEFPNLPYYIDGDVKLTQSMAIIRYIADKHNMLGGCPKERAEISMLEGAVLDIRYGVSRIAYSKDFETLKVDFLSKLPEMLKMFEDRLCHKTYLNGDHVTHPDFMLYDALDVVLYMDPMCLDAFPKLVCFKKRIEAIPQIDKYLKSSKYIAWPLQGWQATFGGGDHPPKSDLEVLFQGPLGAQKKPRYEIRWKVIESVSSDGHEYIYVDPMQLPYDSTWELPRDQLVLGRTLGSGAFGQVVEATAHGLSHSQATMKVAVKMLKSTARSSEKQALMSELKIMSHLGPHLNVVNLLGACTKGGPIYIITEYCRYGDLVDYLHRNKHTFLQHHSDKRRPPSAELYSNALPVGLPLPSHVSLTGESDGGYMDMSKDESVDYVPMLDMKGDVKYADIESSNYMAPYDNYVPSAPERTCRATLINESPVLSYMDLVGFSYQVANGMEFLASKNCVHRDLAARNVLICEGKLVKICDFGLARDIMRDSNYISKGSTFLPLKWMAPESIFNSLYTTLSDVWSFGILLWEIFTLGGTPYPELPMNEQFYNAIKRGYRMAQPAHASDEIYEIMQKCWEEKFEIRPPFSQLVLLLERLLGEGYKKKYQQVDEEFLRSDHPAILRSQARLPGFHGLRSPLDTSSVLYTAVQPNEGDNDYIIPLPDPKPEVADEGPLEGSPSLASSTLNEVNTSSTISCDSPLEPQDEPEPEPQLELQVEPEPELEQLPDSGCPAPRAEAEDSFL

| SMILES | IC50 [1] [nM] | IC50 [2] [nM] |
| --- | --- | --- |
| CCn1cc2ncc(N[C@@H](C)c3cc(NC(=O)Cc4ccc(C5CC5)cn4)ccc3F)nc2n1 [Compound 655, (S)-2-(5-cyclopropylpyridin-2-yl)-N-(3-(1-((2-ethyl-2H-pyrazolo[3,4-b]pyrazin-6-yl)amino)ethyl)-4-fluorophenyl) acetamide] | ≥ 1000 | < 300 |
| Cc1cc(C(=O)Nc2cccc([C@H](C)Nc3cnc4cnn(C)c4n3)c2)ccc1C(=O)OC(C)C [Compound 258, isopropyl (S)-2-methyl-4-((3-(1-((1-methyl-1H-pyrazolo[3,4-b]pyrazin-6-yl)amino)ethyl)phenyl)carbamoyl)benzoate] | < 300 | < 300 |
| CCn1cc2ncc(N[C@@H](C)c3cc(NC(=O)Cc4ccc5c(n4)CCC5)ccc3C)nc2n1 [Compound 719, (S)-2-(6,7-dihydro-5H-cyclopenta[b]pyridin-2-yl)-N-(3-(1-((2-ethyl-2H-pyrazolo[3,4-b]pyrazin-6-yl)amino)ethyl)-4-methylphenyl)acetamide] | < 300 | < 300 |
| CSc1cccc(C(=O)Nc2cccc([C@H](C)Nc3cnc4cnn(C)c4n3)c2)c1 [Compound 224, (S)-N-(3-(1-((1-methyl-1H-pyrazolo[3,4-b]pyrazin-6-yl)amino)ethyl)phenyl)-3-(methylthio)benzamide] | < 300 | < 300 |
| CCCOC(=O)c1ccc(C(=O)Nc2cccc([C@H](C)Nc3cnc4cnn(C)c4n3)c2)cc1C [Compound 254, propyl (S)-2-methyl-4-((3-(1-((1-methyl-1H-pyrazolo[3,4-b]pyrazin-6-yl)amino)ethyl)phenyl)carbamoyl)benzoate] | < 300 | < 300 |
| CCn1nc(C(=O)Nc2cccc([C@H](C)Nc3cnc4cnn(C)c4n3)c2)cc1C(C)C [Compound 163, (S)-1-ethyl-5-isopropyl-N-(3-(1-((1-methyl-1H-pyrazolo[3,4-b]pyrazin-6-yl)amino)ethyl)phenyl)-1H-pyrazole-3-carboxamide] | < 300 | < 300 |
| Cc1c[nH]c2ncc(N[C@@H](C)c3cccc(NC(=O)c4ccc(OC(F)(F)F)nc4)c3)nc12 [Compound 568, (S)-N-(3-(1-((7-methyl-5H-pyrrolo[2,3-b]pyrazin-2-yl)amino)ethyl)phenyl)-6-(trifluoromethoxy)nicotinamide] | ≥ 1000 | 300 to 1000 |
| CCn1cc2ncc(N[C@@H](C)c3cc(NC(=O)c4cnc(C)s4)ccc3F)nc2n1 [Compound 307, (S)-N-(3-(1-((2-ethyl-2H-pyrazolo[3,4-b]pyrazin-6-yl)amino)ethyl)-4-fluorophenyl)-2-methylthiazole-5-carboxamide] | < 300 | < 300 |
| CCn1cc2ncc(N[C@@H](C)c3cc(NC(=O)Cc4cncc(F)c4)ccc3C)nc2n1 [Compound 659, (S)-N-(3-(1-((2-ethyl-2H-pyrazolo[3,4-b]pyrazin-6-yl)amino)ethyl)-4-methylphenyl)-2-(5-fluoropyridin-3-yl) acetamide] | < 300 | < 300 |
| CCn1cc2ncc(N[C@@H](C)c3cccc(NC(=O)c4ccc(CN5CCN(C)CC5)cc4)c3)nc2n1 [Compound 376, (S)-N-(3-(1-((2-ethyl-2H-pyrazolo[3,4-b]pyrazin-6-yl)amino)ethyl)phenyl)-4-((4-methylpiperazin-1-yl)methyl) benzamide] | < 300 | < 300 |
| CCn1cc2ncc(N[C@@H](C)c3cccc(NC(=O)c4cnn(CC5CC5)c4)c3)nc2n1 [Compound 300, (S)-1-(cyclopropylmethyl)-N-(3-(1-((2-ethyl-2H-pyrazolo[3,4-b]pyrazin-6-yl)amino)ethyl)phenyl)-1H-pyrazole-4-carboxamide] | < 300 | < 300 |
| CCn1cc2ncc(N[C@@H](C)c3cccc(NC(=O)c4cnc(C5CC5)s4)c3)nc2n1 [Compound 296, (S)-2-cyclopropyl-N-(3-(1-((2-ethyl-2H-pyrazolo[3,4-b]pyrazin-6-yl)amino)ethyl)phenyl)thiazole-5-carboxamide] | < 300 | < 300 |

Next, values leading:

| IC50 [1] [nM] | IC50 [2] [nM] | SMILES |
| --- | --- | --- |
| < 300 | < 300 | Cc1cncc(C(=O)Nc2cccc([C@H](C)Nc3cnc4ccc(C5CC5)cc4n3)c2)c1 [Compound 41, (S)-N-(3-(1-((7-cyclopropylquinoxalin-2-yl)amino)ethyl)phenyl)-5-methylnicotinamide] |
| < 300 | < 300 | CCn1cc2ncc(N[C@@H](C)c3cccc(NC(=O)Cc4ccc(F)c(C)c4)c3)nc2n1 [Compound 632, (S)-N-(3-(1-((2-ethyl-2H-pyrazolo[3,4-b]pyrazin-6-yl)amino)ethyl)phenyl)-2-(4-fluoro-3-methylphenyl) acetamide] |
| < 300 | < 300 | CCn1cc2ncc(N[C@@H](C)c3cccc(NC(=O)c4ccc(OC(F)(F)F)c(C)c4)c3)nc2n1 [Compound 452, (S)-N-(3-(1-((2-ethyl-2H-pyrazolo[3,4-b]pyrazin-6-yl)amino)ethyl)phenyl)-3-methyl-4-(trifluoromethoxy)benzamide] |
| ≥ 1000 | 300 to 1000 | CCn1cc2ncc(N[C@@H](C)c3cccc(NC(=O)c4ccc(NC)nc4)c3)nc2n1 [Compound 393, (S)-N-(3-(1-((2-ethyl-2H-pyrazolo[3,4-b]pyrazin-6-yl)amino)ethyl)phenyl)-6-(methylamino)nicotinamide] |
| < 300 | < 300 | CCn1cc2ncc(N[C@@H](C)c3cccc(NC(=O)c4cnc(C5CCCC5)s4)c3)nc2n1 [Compound 398, (S)-2-cyclopentyl-N-(3-(1-((2-ethyl-2H-pyrazolo[3,4-b]pyrazin-6-yl)amino)ethyl)phenyl)thiazole-5-carboxamide] |
| < 300 | < 300 | CCn1cc2ncc(N[C@@H](C)c3cccc(NC(=O)c4cc(F)c(CN5CCCC5)c(Cl)c4)c3)nc2n1 [Compound 488, (S)-3-chloro-N-(3-(1-((2-ethyl-2H-pyrazolo[3,4-b]pyrazin-6-yl)amino)ethyl)phenyl)-5-fluoro-4-(pyrrolidin-1-ylmethyl) benzamide] |
| < 300 | < 300 | Cc1cc(C(=O)Nc2cccc([C@H](C)Nc3cnc4cnn(C)c4n3)c2)cnc1CN1CCN(C)CC1 [Compound 243, (S)-5-methyl-N-(3-(1-((1-methyl-1H-pyrazolo[3,4-b]pyrazin-6-yl)amino)ethyl)phenyl)-6-((4-methylpiperazin-1-yl)methyl)nicotinamide] |
| ≥ 1000 | 300 to 1000 | CCn1cc2ncc(N[C@@H](C)c3cc(NC(=O)Cc4ccc(C(C)(C)F)cn4)ccc3F)nc2n1 [Compound 683, (S)-N-(3-(1-((2-ethyl-2H-pyrazolo[3,4-b]pyrazin-6-yl)amino)ethyl)-4-fluorophenyl)-2-(5-(2-fluoropropan-2-yl)pyridin-2-yl)acetamide] |
| < 300 | < 300 | CCn1cc2ncc(N[C@@H](C)c3cc(NC(=O)c4cnc(C#N)c(C)c4)ccc3F)nc2n1 [Compound 306, (S)-6-cyano-N-(3-(1-((2-ethyl-2H-pyrazolo[3,4-b]pyrazin-6-yl)amino)ethyl)-4-fluorophenyl)-5-methylnicotinamide] |
| 300 to 1000 | < 300 | Cc1cncc(C(=O)Nc2cccc([C@H](C)Nc3cncc4c3ccn4-c3cnn(C)c3)c2)c1 [Compound 748, (S)-5-methyl-N-(3-(1-((1-(1-methyl-1H-pyrazol-4-yl)-1H-pyrrolo[2,3-c]pyridin-4-yl)amino)ethyl)phenyl) nicotinamide] |
| ≥ 1000 | < 300 | CCc1ccc(CC(=O)Nc2cccc([C@H](C)Nc3cnc4cn(CC)nc4n3)c2)nc1 [Compound 712, (S)-N-(3-(1-((2-ethyl-2H-pyrazolo[3,4-b]pyrazin-6-yl)amino)ethyl)phenyl)-2-(5-ethylpyridin-2-yl)acetamide] |
| ≥ 1000 | < 300 | CCn1cc2ncc(N[C@@H](C)c3cc(NC(=O)Cc4ccc(C(F)(F)F)cn4)ccc3F)nc2n1 [Compound 654, (S)-N-(3-(1-((2-ethyl-2H-pyrazolo[3,4-b]pyrazin-6-yl)amino)ethyl)-4-fluorophenyl)-2-(5-(trifluoromethyl)pyridin-2-yl) acetamide] |
| < 300 | < 300 | CCn1cc2ncc(N[C@@H](C)c3cc(NC(=O)Cc4ccc(Cl)cn4)ccc3C)nc2n1 [Compound 657, (S)-2-(5-chloropyridin-2-yl)-N-(3-(1-((2-ethyl-2H-pyrazolo[3,4-b]pyrazin-6-yl)amino)ethyl)-4-methylphenyl)acetamide] |
| < 300 | < 300 | COc1cccc2ncc(N[C@@H](C)c3cccc(NC(=O)c4cncc(C)c4)c3)cc12 [Compound 27, (S)-N-(3-(1-((5-methoxyquinolin-3-yl)amino)ethyl)phenyl)-5-methylnicotinamide] |
| ≥ 1000 | < 300 | C[C@H](Nc1cnc2cnn(C)c2n1)c1cccc(NC(=O)c2ccn(C(F)F)n2)c1 [Compound 155, (S)-1-(difluoromethyl)-N-(3-(1-((1-methyl-1H-pyrazolo[3,4-b]pyrazin-6-yl)amino)ethyl)phenyl)-1H-pyrazole-3-carboxamide] |
| < 300 | < 300 | CC(C)c1cc(C(=O)Nc2cccc([C@H](C)Nc3cnc4[nH]ccc4n3)c2)no1 [Compound 553, (S)-N-(3-(1-((5H-pyrrolo[2,3-b]pyrazin-2-yl)amino)ethyl)phenyl)-5-isopropylisoxazole-3-carboxamide] |
| 300 to 1000 | < 300 | CCn1cc2ncc(N[C@@H](C)c3cc(NC(=O)Cc4cncc(Cl)c4)ccc3F)nc2n1 [Compound 663, (S)-2-(5-chloropyridin-3-yl)-N-(3-(1-((2-ethyl-2H-pyrazolo[3,4-b]pyrazin-6-yl)amino)ethyl)-4-fluorophenyl)acetamide] |
| 300 to 1000 | < 300 | CCn1cc2ncc(N[C@@H](C)c3cccc(NC(=O)c4cncc(Cl)c4)c3)nc2n1 [Compound 281, (S)-5-chloro-N-(3-(1-((2-ethyl-2H-pyrazolo[3,4-b]pyrazin-6-yl)amino)ethyl)phenyl) nicotinamide] |
